Measurements reported in patent US6451814B1, “Heterocyclic β-3 adrenergic receptor agonists” (Wyeth, priority 2000, dated 2002).
Counter-ions that a name gives are not always drawn.

Legend:
[1] = biological target: T1, human β3-adrenergic receptor (Homo sapiens, UniProt P13945); experiment: cAMP response (SPA kit) in CHO cells transfected with human β3 adrenergic receptor; assay type: cell-based; settings: for EC50: CHO cells expressing human β3-AR, 10^-9 M to 10^-5 M, 30 min at 37° C., cAMP by SPA, read-out: EC50(β3); for IA(β3): maximal response of compound compared to maximal response of isoproterenol at 10^-5 M, CHO cells, human β3-AR
T1 construct: Full length β3 AR clones (402 amino acids) containing the last 6 amino acids of hβ3—AR are prepared; expressed in transfected cells; host or cells: CHO cells
T1 sequence (P13945 whole entry): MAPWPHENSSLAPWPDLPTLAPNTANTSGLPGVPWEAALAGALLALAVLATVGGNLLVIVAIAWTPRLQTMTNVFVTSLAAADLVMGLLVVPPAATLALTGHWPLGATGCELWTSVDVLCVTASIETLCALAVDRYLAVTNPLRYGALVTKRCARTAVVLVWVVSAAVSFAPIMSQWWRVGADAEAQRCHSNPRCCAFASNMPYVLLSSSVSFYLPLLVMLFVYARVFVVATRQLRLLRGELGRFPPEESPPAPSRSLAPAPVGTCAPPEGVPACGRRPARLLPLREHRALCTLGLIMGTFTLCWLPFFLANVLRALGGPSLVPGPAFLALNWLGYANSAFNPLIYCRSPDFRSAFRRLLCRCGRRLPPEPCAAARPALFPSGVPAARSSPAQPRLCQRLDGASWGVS

## O=C(NCc1ccc(F)cc1)N1CCC(Sc2ccc(CCNC[C@H](O)COc3ccc(O)cc3)cc2)CC1 [Example 42, 4-(4-{2-[(2S)-2-Hydroxy-3-(4-hydroxy-phenoxy)-propylamino]-ethyl}-phenylsulfanyl)-piperidine-1-carboxylic Acid-4-fluorobenzylamide]
[1]
  EC50: 95 nM
  IA(β3): 0.72
other
  melting point: 181 to 183 °C

## CCCCCCCCNC(=O)N1CCC(Nc2ccc(CCNC[C@H](O)c3ccc(O)c(NS(C)(=O)=O)c3)cc2)CC1 [Example 59, 4-(4-{2-[(2R)-2-Hydroxy-2-(4-hydroxy-3-methanesulfonylamino-phenyl)-ethylamino]-ethyl}-phenylamino)-piperidine-1-carboxylic Acidoctylamide]
[1]
  EC50: 3 nM
  IA(β3): 1
other
  melting point: 160 to 162 °C

## O=C(c1c[nH]c2ccccc12)N1CCC(Nc2ccc(CCNC[C@H](O)COc3ccc(O)cc3)cc2)CC1 [Example 99, [4-(4-{2-[(2S)-2-Hydroxy-3-(4-hydroxy-phenoxy)-propylamino]-ethyl}-phenylamino)-piperidin-1-yl]-(1H-indol-3-yl)-methanone]
[1]
  EC50: 9 nM
  IA(β3): 1.08
other
  melting point: 90 to 92 °C

## CCOC(=O)C1CCN(C(=O)N2CCC(Nc3ccc(CCNC[C@H](O)COc4ccc(O)cc4)cc3)CC2)CC1 [Example 61, 1-[4-(4-{2-[(2S)-2-Hydroxy-3-(4-hydroxy-phenoxy)-propylamino]-ethyl}-phenylamino)-piperidine-1-carbonyl]-piperidine-4-carboxylic Acid Ethyl Ester]
[1]
  EC50: 89 nM
  IA(β3): 1.34
other
  melting point: 69 to 71 °C

## O=C(OCc1ccc(F)cc1)N1CCC(Nc2ccc(CCNC[C@H](O)COc3ccc(O)cc3)cc2)CC1 [Example 121, 4-(4-{2-[(2S)-2-Hydroxy-3-(4-hydroxy-phenoxy)-propylamino]-ethyl}-phenylamino)-piperidine-1-carboxylic acid 4-fluoro-benzyl Ester]
[1]
  EC50: 90 nM
  IA(β3): 0.69
other
  melting point: 60 to 62 °C

## O=C(NCC1(c2ccccc2)CCCC1)N1CCC(Sc2ccc(CCNC[C@H](O)COc3ccc(O)cc3)cc2)CC1 [Example 43, 4-(4-{2-[(2S)-2-Hydroxy-3-(4-hydroxy-phenoxy)-propylamino]-ethyl}-phenylsulfanyl)-piperidine-1-carboxylic Acid (1-phenyl-cyclopentylmethyl)-amide]
[1]
  EC50: 390 nM
  IA(β3): 0.81
other
  melting point: 132 °C

## CCCCCCCCNC(=O)N1CCC(S(=O)(=O)c2ccc(CCNC[C@H](O)COc3ccc(O)c(C)c3)cc2)CC1 [Example 48, 4-(4-{2-[(2S)-2-Hydroxy-3-(4-hydroxy-3-methyl-phenoxy)-propylamino]-ethyl}-benzenesulfonyl)-piperidine-1-carboxylic Acid Octylamide]
[1]
  EC50: 50 nM
  IA(β3): 0.7
other
  melting point: 58 to 71 °C

## O=C(NCC1CCCC1)N1CCC(Nc2ccc(CCNC[C@H](O)COc3ccc(O)cc3)cc2)CC1 [Example 70, 4-(4-{2-[(2S)-2-Hydroxy-3-(4-hydroxy-phenoxy)-propylamino]-ethyl}-phenylamino)-piperidine-1-carboxylic Acid Cyclopentylmethyl-amide]
[1]
  EC50: 106 nM
  IA(β3): 1
other
  melting point: 76 to 78 °C

## COc1ccc(C2CCN(C(=O)N3CCC(Nc4ccc(CCNC[C@H](O)COc5ccc(O)cc5)cc4)CC3)CC2)cc1OC1CCCC1 [Example 17, [4-(3-Cyclopentyloxy-4-methoxy-phenyl)-piperidin-1-yl]-[4-(4-{2-[(2S)-2-hydroxy-3-(4-hydroxy-phenoxy)-propylamino]-ethyl}-phenylamino)-piperidin-1-yl]-methanone]
[1]
  EC50: 15 nM
  IA(β3): 0.63
other
  melting point: 92 to 95 °C

## CCCCCCCCNC(=O)N1CCC(Nc2ccc(CCNC[C@H](O)COc3ccc(O)cc3Cl)cc2)CC1 [Example 16, 4-[4-(2-{[(2S)-3-(2-Chloro-4-hydroxyphenoxy)-2-hydroxypropyl]amino}ethyl)anilino]-N-octyl-1-piperidinecarboxamide]
[1]
  EC50: 542 nM
  IA(β3): 1
other
  melting point: 61 to 65 °C

## CCCCCCCCNC(=O)N1CCC(Nc2ccc(CCNC[C@H](O)COc3ccc(NS(C)(=O)=O)cc3)cc2)CC1 [Example 22, 4-(4-{2-[(2S)-2-Hydroxy-3-(4-methanesulfonylamino-phenoxy)-propylamino]-ethyl}-phenylamino)-piperidine-1-carboxylic Acid Octylamide]
other
  melting point: 89 to 95 °C

## O=C(NCc1ccc(F)cc1)N1CCC(Nc2ccc(CCNC[C@H](O)COc3ccc(O)cc3)cc2)CC1 (as salt: salt) [Example 1, 4-(4-{2-[(2S)-2-Hydroxy-3-(4-hydroxy-phenoxy)-propylamino]-ethyl}-phenylamino)-piperidine-1-carboxylic Acid 4-fluoro-benzylamide]
other
  melting point: 89 to 91 °C

## O=C(c1n[nH]c2ccccc12)N1CCC(Nc2ccc(CCNC[C@H](O)COc3ccc(O)cc3)cc2)CC1 (as salt: salt) [Example 102, [4-(4-{2-[(2S)-2-Hydroxy-3-(4-hydroxy-phenoxy)-propylamino]-ethyl}-phenylamino)-piperidin-1-yl]-(1H-indazol-3-yl)-methanone]
other
  melting point: 111 to 113 °C

## CC(=O)Nc1ccc(S(=O)(=O)N2CCC(Nc3ccc(CCNC[C@H](O)COc4ccc(O)cc4)cc3)CC2)cc1 (as salt: salt) [Example 114, N-{4-[4-(4-{2-[(2S)-2-Hydroxy-3-(4-hydroxy-phenoxy)-propylamino]-ethyl}-phenylamino)-piperidine-1-sulfonyl]-phenyl}-acetamide]
other
  melting point: 98 to 104 °C

## CCCCCCCCNC(=O)N1CCC(N(C(C)=O)c2ccc(CCNC[C@H](O)COc3ccc(O)cc3)cc2)CC1 (as salt: salt) [Example 8, 4-[Acetyl-(4-{2-[(2S)-2-hydroxy-3-(4-hydroxy-phenoxy)-propylamino]-ethyl}-phenyl)-amino]-piperidine-1-carboxylic Acid Octylamide]
other
  melting point: 71 to 74 °C

## C=CCc1ccccc1OC[C@@H](O)CNCCc1ccc(NC2CCN(S(=O)(=O)c3ccc(N(CCCCCC)C(N)=O)cc3)CC2)cc1 [Example 110, N-[4-({4-[4-(2-{[(2S)-3-(2-allylphenoxy)-2-hydroxypropyl]amino}ethyl)anilino]-1-piperidinyl}sulfonyl)phenyl]-N-hexylurea]
other
  melting point: 68 to 70 °C

## COc1ccc2[nH]c(C(=O)N3CCC(Nc4ccc(CCNCC(O)COc5ccc(O)cc5)cc4)CC3)cc2c1 (stereo not drawn) (as salt: salt) [Example 94, [4-(4-{2-[2-Hydroxy-3-(4-hydroxy-phenoxy)-propylamino]-ethyl}-phenylamino)-piperidin-1-yl]-(5-methoxy-1H-indol-2-yl)-methanone]
other
  melting point: 101 to 103 °C

## CCCCCCCCNC(=O)N1CCC(Nc2ccc(CCNCC(O)c3ccc(O)c(C(N)=O)c3)cc2)CC1 (stereo not drawn) (as salt: salt) [Example 7, 4-(4-{2-[2-(3-Carbamoyl-4-hydroxy-phenyl)-2-hydroxy-ethylamino]-ethyl}-phenylamino)-piperidine-1-carboxylic Acid Octylamide]
other
  melting point: 101 to 104 °C

## O=C(NC1CCCCC1)N1CCC(Nc2ccc(CCNC[C@H](O)COc3ccc(O)cc3)cc2)CC1 (as salt: salt) [Example 2]
other
  melting point: 77 to 86 °C

## O=C(NCCCC1CCCC1)N1CCC(Nc2ccc(CCNC[C@H](O)COc3ccc(O)cc3)cc2)CC1 (as salt: salt) [Example 12, 1-4-(4-{2-[(2S)-2-Hydroxy-3-(4-hydroxy-phenoxy)-propylamino]-ethyl}-phenylamino)-piperidine-1-carboxylic Acid (3-cyclopentyl-propyl)-amide]
other
  melting point: 71 to 74 °C

## CCCCCCCCNC(=O)N1CCC(C(=O)N2CCC(Nc3ccc(CCNC[C@H](O)COc4ccc(O)cc4)cc3)CC2)CC1 (as salt: salt) [Example 92, 4-[4-(4-{2-[(2S)-2-Hydroxy-3-(4-hydroxy-phenoxy)-propylamino]-ethyl}-phenylamino)-piperidine-1-carbonyl]-piperidine-1-carboxylic Acidoctylamide]
other
  melting point: 88 to 91 °C

## CCNC(=O)N1CCC(Nc2ccc(CCNC[C@H](O)COc3ccc(O)cc3)cc2)CC1 (as salt: salt) [Example 10, 4-(4-{2-[(2S)-2-Hydroxy-3-(4-hydroxy-phenoxy)-propylamino]-ethyl}-phenylamino)-piperidine-1-carboxylic Acid Ethylamide]
other
  melting point: 81 to 85 °C

## Cc1ccsc1C(=O)N1CCC(Nc2ccc(CCNC[C@H](O)COc3ccc(O)cc3)cc2)CC1 (as salt: salt) [Example 100, [4-(4-{2-[(2S)-2-Hydroxy-3-(4-hydroxy-phenoxy)-propylamino]-ethyl}-phenylamino)-piperidin-1-yl]-(3-methyl-thiophen-2-yl)-methanone]
other
  melting point: 88 to 90 °C

## O=C(NCc1ccc(Cl)cc1Cl)N1CCC(Nc2ccc(CCNC[C@H](O)COc3ccc(O)cc3)cc2)CC1 (as salt: ammonium) [Example 20, 4-(4-{2-[(2S)-2-Hydroxy-3-(4-hydroxy-phenoxy)-propylamino]-ethyl}-phenylamino)-piperidine-1-carboxylic Acid 2,4-dichloro-benzylamide]
other
  melting point: 93 to 99 °C

## COc1c(C(=O)N2CCC(Nc3ccc(CCNC[C@H](O)COc4ccc(O)cc4)cc3)CC2)sc2ccccc12 (as salt: salt) [Example 97, [4-(4-{2-[(2S)-2-Hydroxy-3-(4-hydroxy-phenoxy)-propylamino]-ethyl}-phenylamino)-piperidin-1-yl]-(3-methoxy-benzo[b]thiophen-2-yl)-methanone]
other
  melting point: 84 to 86 °C
